One assay concerns the target T1, Beta-galactosidase (Aspergillus niger, UniProt P29853).
T1 sequence (P29853 whole entry): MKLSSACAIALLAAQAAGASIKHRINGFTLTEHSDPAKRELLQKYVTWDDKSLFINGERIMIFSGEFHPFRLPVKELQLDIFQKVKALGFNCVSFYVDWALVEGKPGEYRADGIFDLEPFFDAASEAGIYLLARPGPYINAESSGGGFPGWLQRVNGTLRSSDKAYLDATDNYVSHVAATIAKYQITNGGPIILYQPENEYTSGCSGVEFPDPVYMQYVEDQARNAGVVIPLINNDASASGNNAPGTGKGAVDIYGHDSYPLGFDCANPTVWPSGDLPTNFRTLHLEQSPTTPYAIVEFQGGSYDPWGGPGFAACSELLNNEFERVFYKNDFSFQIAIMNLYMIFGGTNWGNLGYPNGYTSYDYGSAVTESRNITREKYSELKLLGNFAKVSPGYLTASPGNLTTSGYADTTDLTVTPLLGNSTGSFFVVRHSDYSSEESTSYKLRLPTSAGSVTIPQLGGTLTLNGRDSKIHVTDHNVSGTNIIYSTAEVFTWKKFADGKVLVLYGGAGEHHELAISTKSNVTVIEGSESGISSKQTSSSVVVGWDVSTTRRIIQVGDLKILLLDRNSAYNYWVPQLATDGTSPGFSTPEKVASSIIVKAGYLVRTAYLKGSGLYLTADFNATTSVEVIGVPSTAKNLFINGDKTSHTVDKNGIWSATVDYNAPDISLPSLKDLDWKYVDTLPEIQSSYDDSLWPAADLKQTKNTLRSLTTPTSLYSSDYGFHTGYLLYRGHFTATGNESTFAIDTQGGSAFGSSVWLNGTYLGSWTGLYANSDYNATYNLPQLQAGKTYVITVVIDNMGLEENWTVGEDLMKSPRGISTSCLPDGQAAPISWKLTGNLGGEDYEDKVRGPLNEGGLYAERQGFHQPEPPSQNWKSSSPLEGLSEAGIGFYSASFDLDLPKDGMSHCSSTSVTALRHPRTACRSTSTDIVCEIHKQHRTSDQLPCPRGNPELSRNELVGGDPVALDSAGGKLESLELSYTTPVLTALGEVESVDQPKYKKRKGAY
As to the kind of experiment: Inhibition of beta-galactosidase from Aspergillus niger.

Assay [1] addresses Beta-glucosidase A (Caldicellulosiruptor saccharolyticus) (UniProt P10482). To be noted: 1 mM.
Target sequence in this assay (P10482 whole entry): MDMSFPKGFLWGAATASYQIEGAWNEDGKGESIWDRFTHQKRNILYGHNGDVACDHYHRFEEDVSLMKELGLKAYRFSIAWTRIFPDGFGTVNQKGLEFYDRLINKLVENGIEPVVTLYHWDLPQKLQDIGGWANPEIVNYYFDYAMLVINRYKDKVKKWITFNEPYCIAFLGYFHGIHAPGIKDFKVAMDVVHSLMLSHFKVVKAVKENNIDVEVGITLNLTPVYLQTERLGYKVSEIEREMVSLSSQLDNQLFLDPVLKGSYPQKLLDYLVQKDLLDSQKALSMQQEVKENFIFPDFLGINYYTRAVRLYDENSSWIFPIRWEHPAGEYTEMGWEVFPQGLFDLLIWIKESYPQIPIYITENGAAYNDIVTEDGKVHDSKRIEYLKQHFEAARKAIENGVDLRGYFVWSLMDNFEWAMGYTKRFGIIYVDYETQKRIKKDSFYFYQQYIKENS
For a further assay, the target named is Beta-glucosidase A (Caldicellulosiruptor saccharolyticus, UniProt P10482). As to the kind of experiment: Inhibition of beta-glucosidase from Caldocellum saccharolyticum.
The target of assay [2] is T2, Beta-galactosidase (Aspergillus niger) (UniProt P29853).
T2 sequence (whole entry): T1 sequence (P29853 whole entry)
Conditions: 1 mM.

In assay [3] the target is Beta-glucosidase A (Caldicellulosiruptor saccharolyticus) (UniProt P10482). As to the kind of experiment: Inhibitory activity against beta-glucosidase from Caldocellum saccharolyticum at a concentration of 1 mM; No activity.
Target sequence in this assay (P10482 whole entry, looked up): as the sequence (P10482 whole entry) above
For assay [4], the target named is T2, Beta-galactosidase (Aspergillus niger). The assay can be described thus: Inhibitory activity against beta-galactosidase from Aspergillus niger at a concentration of 1 mM; No activity.
Assay [5] can be described thus: Inhibitory activity against beta-galactosidase from jack beans at a concentration of 1 mM; No activity. Conditions: Canavalia ensiformis.
Assay [6] can be described thus: Inhibitory activity against beta-galactosidase from Aspergillus oryzae at a concentration of 1 mM; No activity.
Assay [7] concerns the target Beta-glucosidase A (Caldicellulosiruptor saccharolyticus) (UniProt P10482). As to the kind of experiment: Inhibitory activity against beta-glucosidase from Caldocellum saccharolyticum at a concentration of 1 mM; No activity.
Target sequence in this assay (P10482 whole entry): as above
Assay [8] is described as follows: Inhibitory activity against rice Alpha-galactosidase at concentration 1 mM.
Assay [9] is described as follows: Inhibitory activity against beta-galactosidase from jack beans […]; No activity. To be noted: Canavalia ensiformis.

The results in this text go back to ChEMBL document CHEMBL1132029, “Specific, uncompetitive inhibition of beta-galactosidases by a 5,6-isopropylidenedioxyfuro[2,3-d]isoxazole-3-methanol derivative” (Bioorg Med Chem Lett, 1999).

Active and inactive are the calls of the source. The calls are words filed in the database; no cut-off is given here.

Sequence of Beta-glucosidase A (P10482 whole entry): as above

In the case of `CC1(C)O[C@@H]2O[C@H]3C(CO)=NO[C@H]3[C@@H]2O1`, the IC50 (usually the concentration that gives 50% inhibition) against Beta-galactosidase came out at 43 µM; against Beta-glucosidase A it was 550 µM. The Ki (as a rule, a measure of affinity in units of concentration, obtained from inhibition or displacement) came to 18 µM at Beta-galactosidase and 5 µM on Beta-glucosidase A. Further, the inhibition (usually the relative decrease from the control value, in per cent) stood at 67% in [1] and 14% in assay [2].

As for `CC1(C)O[C@H]2O[C@@H]3C(C4N[C@@H](c5ccccc5)[C@H](c5ccccc5)N4)=NO[C@@H]3[C@H]2O1`, the outcome in assay [3], in [4], in assay [5] and in [6] was inactive.

In the case of `OCC1=NO[C@H]2[C@H](O)C(O)O[C@@H]12` (stereo not given in full), the outcome in [4], in assay [7], in assay [5] and in assay [6] was inactive. Besides, the inhibition in [8] came out at 59%.

As for `CC1(C)O[C@@H]2O[C@H]3C(C=O)=NO[C@H]3[C@@H]2O1`, the result in [3], in assay [4], in assay [5] and in assay [6] was inactive.

As for `CC1(C)O[C@@H]2O[C@H]3C(C4N[C@@H](c5ccccc5)[C@H](c5ccccc5)N4)=NO[C@H]3[C@@H]2O1`, the outcome in assay [3], in [4], in assay [9] and in [6] was inactive.

In the case of `COCC1=NO[C@H]2[C@@H]3OC(C)(C)O[C@@H]3O[C@@H]12`, the outcome in assay [4], in assay [7], in assay [5] and in assay [6] was inactive.

Regarding `COCOCC1=NO[C@H]2[C@@H]3OC(C)(C)O[C@@H]3O[C@@H]12`, the outcome in assay [4], in [7], in assay [5] and in [6] was inactive.

`CCOC(OCC)C1=NO[C@H]2[C@H](O)C(O)O[C@@H]12` (stereo not given in full): the outcome in [3], in [4], in assay [5] and in [6] was inactive.
